According to the supplement of paper PMC8960247:
± gives the standard error.

Tests used:
UMB1949 (TSC2-deficient) = experiment: relative viability vs DMSO (fraction); higher = less cytotoxic; conditions: serum: 0.1% FBS, 72 h;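 also: renal angiomyolipoma cell lines screened in 384-well plates, viability normalized per plate to DMSO-treated cells, each plate carrying 50 nM rapamycin and 1 µM staurosporine controls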
621-102 (TSC2-deficient) [1] = experiment: as above; conditions: serum: 0.1% FBS, 72 h
621-103 (TSC2-rescued) = experiment: relative viability vs DMSO; higher = less cytotoxic; conditions: serum: 10% FBS, 72 h
621-102 (TSC2-deficient) [2] = experiment: as above; conditions: serum: 10% FBS, 72 h

| Structure (SMILES) | relative viability (UMB1949 (TSC2-deficient); 0.0128 nM) | relative viability (UMB1949 (TSC2-deficient); 0.064 nM) | relative viability (UMB1949 (TSC2-deficient); 0.32 nM) | relative viability (UMB1949 (TSC2-deficient); 1.6 nM) | relative viability (UMB1949 (TSC2-deficient); 8 nM) | relative viability (UMB1949 (TSC2-deficient); 40 nM) | relative viability (UMB1949 (TSC2-deficient); 200 nM) | relative viability (UMB1949 (TSC2-deficient); 1000 nM) | relative viability (UMB1949 (TSC2-deficient); 5000 nM) | relative viability (621-102 (TSC2-deficient) [1]; 0.0128 nM) | relative viability (621-102 (TSC2-deficient) [1]; 0.064 nM) | relative viability (621-102 (TSC2-deficient) [1]; 0.32 nM) | relative viability (621-102 (TSC2-deficient) [1]; 1.6 nM) | relative viability (621-102 (TSC2-deficient) [1]; 8 nM) | relative viability (621-102 (TSC2-deficient) [1]; 40 nM) | relative viability (621-102 (TSC2-deficient) [1]; 200 nM) | relative viability (621-102 (TSC2-deficient) [1]; 1000 nM) | relative viability (621-102 (TSC2-deficient) [1]; 5000 nM) | relative viability (621-103 (TSC2-rescued); 0.0001 µM) [%] | relative viability (621-103 (TSC2-rescued); 0.001 µM) [%] | relative viability (621-103 (TSC2-rescued); 0.01 µM) [%] | relative viability (621-103 (TSC2-rescued); 0.1 µM) [%] | relative viability (621-103 (TSC2-rescued); 1 µM) [%] | relative viability (621-103 (TSC2-rescued); 10 µM) [%] | relative viability (621-102 (TSC2-deficient) [2]; 0.0001 µM) [%] | relative viability (621-102 (TSC2-deficient) [2]; 0.001 µM) [%] | relative viability (621-102 (TSC2-deficient) [2]; 0.01 µM) [%] | relative viability (621-102 (TSC2-deficient) [2]; 0.1 µM) [%] | relative viability (621-102 (TSC2-deficient) [2]; 1 µM) [%] | relative viability (621-102 (TSC2-deficient) [2]; 10 µM) [%] |
| --- | --- | --- | --- | --- | --- | --- | --- | --- | --- | --- | --- | --- | --- | --- | --- | --- | --- | --- | --- | --- | --- | --- | --- | --- | --- | --- | --- | --- | --- | --- |
| CC(C)(C)c1cnc(CSc2cnc(NC(=O)C3CCNCC3)s2)o1 | 1.14 | 1.05 | 1.1 | 1.12 | 1.07 | 0.771 | 0.00698 | 0.00188 | 0.00107 | 1.06 | 1.14 | 1.02 | 1.07 | 0.654 | 0.112 | 0.00431 | 0.00292 | 0.00164 | 99.3 ± 1.4 | 96.57 ± 0.27 | 96.563 ± 0.042 | 49.5 ± 4.3 | 21.27 ± 0.21 | 16.3 ± 1.4 | 102.3 ± 0.73 | 107.6 ± 0.94 | 102 ± 3.9 | 51.1 ± 3.1 | 15.7 ± 0.57 | 8.84 ± 0.46 |
| CCOc1ccn(-c2ccc(F)cc2)c(=O)c1C(=O)Nc1ccc(Oc2ccnc(N)c2Cl)c(F)c1 | 0.977 | 1.06 | 0.983 | 1.01 | 0.867 | 1.03 | 1.02 | 0.984 | 0.0304 | 1.04 | 0.924 | 0.972 | 0.852 | 0.854 | 0.991 | 0.877 | 0.756 | 0.0351 | 88.1 ± 3.7 | 93.98 ± 0.29 | 98.93 ± 0.32 | 99.4 ± 1.1 | 97.6 ± 3.9 | 90.8 ± 4.7 | 106 ± 3.3 | 101.7 ± 0.87 | 103 ± 2.8 | 104.97 ± 0.1 | 100 ± 1.6 | 97.17 ± 0.96 |
| CCc1cccc(CC)c1NC(=O)N1Cc2[nH]nc(NC(=O)c3ccc(N4CCN(C)CC4)cc3)c2C1 | 0.986 | 1.13 | 1.17 | 0.98 | 0.853 | 0.0445 | 0.00761 | 0.00148 | 0.000776 | 1.02 | 0.947 | 1.01 | 0.767 | 0.524 | 0.292 | 0.0956 | 0.0612 | 0.00895 | 103 ± 1.6 | 101.9 ± 0.41 | 104.5 ± 0.47 | 103 ± 1.4 | 64.8 ± 1.1 | 17.8 ± 0.74 | 100 ± 7.8 | 86.5 ± 5.1 | 101 ± 3.2 | 91.7 ± 2.3 | 60.9 ± 2 | 30.4 ± 1.4 |
| CO[C@@H](C(=O)N1Cc2[nH]nc(NC(=O)c3ccc(N4CCN(C)CC4)cc3)c2C1)c1ccccc1 | 0.936 | 0.879 | 0.868 | 1.02 | 0.261 | 0.037 | 0.0271 | 0.00276 | 0.000648 | 0.925 | 0.972 | 0.92 | 0.989 | 0.816 | 0.325 | 0.0618 | 0.0757 | 0.00444 | 85.7 ± 2.3 | 90.8 ± 0.93 | 92.6 ± 5 | 89.5 ± 2.8 | 62.3 ± 1.8 | 11.5 ± 0.39 | 105 ± 3.9 | 101 ± 2.8 | 98 ± 8.5 | 91.8 ± 2.3 | 64.1 ± 0.79 | 31.6 ± 0.91 |
| Cc1cc(Nc2cc(CN3CCOCC3)c3nc(C)c(Cc4ccc(Cl)cc4F)n3n2)n[nH]1 | 1.1 | 1 | 1.03 | 0.938 | 1 | 0.885 | 0.753 | 0.0134 | 0.000916 | 1.15 | 1.05 | 1.08 | 0.98 | 1.05 | 0.925 | 0.787 | 0.014 | 0.000958 | 106.8 ± 0.47 | 96.94 ± 0.68 | 90.05 ± 0.81 | 98.4 ± 5.3 | 87.2 ± 2.1 | 8.52 ± 0.44 | 109 ± 2.8 | 108 ± 1.6 | 97.1 ± 3.9 | 101 ± 1.6 | 95.8 ± 1.3 | 26.9 ± 0.53 |
| CN(C)CC[C@H](CSc1ccccc1)Nc1ccc(S(=O)(=O)NC(=O)c2ccc(N3CCN(Cc4ccccc4-c4ccc(Cl)cc4)CC3)cc2)cc1[N+](=O)[O-] [ABT-737] | 1.02 | 0.975 | 0.941 | 0.965 | 0.92 | 0.869 | 0.803 | 0.197 | 0.00643 | 0.888 | 0.796 | 0.677 | 0.564 | 0.491 | 0.175 | 0.00664 | 0.00508 | 0.00348 | 101 ± 1.5 | 99.05 ± 0.48 | 97.82 ± 0.7 | 98.61 ± 0.42 | 91.97 ± 0.57 | 43.5 ± 2.2 | 122.1 ± 0.59 | 118 ± 1.4 | 113 ± 1.9 | 107 ± 3.3 | 101 ± 3.6 | 43.2 ± 2 |
| CCN1CCN(Cc2ccc(-c3cc4c(N[C@H](C)c5ccccc5)ncnc4[nH]3)cc2)CC1 [AEE788] | 1.02 | 0.971 | 1 | 1.07 | 0.964 | 1.01 | 0.767 | 0.305 | 0.00689 | 1.06 | 0.968 | 1.01 | 0.786 | 0.612 | 0.64 | 0.156 | 0.034 | 0.00903 | 94.8 ± 1.2 | 107.1 ± 0.38 | 103.4 ± 0.79 | 102 ± 3.6 | 100 ± 3.8 | 10.7 ± 1 | 106 ± 2.1 | 107.3 ± 1 | 106 ± 4.4 | 104 ± 1.6 | 100 ± 3.6 | 36.7 ± 12 |
| O=C(Nc1c[nH]nc1-c1nc2ccc(CN3CCOCC3)cc2[nH]1)NC1CC1 [AT9283] | 1.11 | 1.02 | 0.973 | 0.996 | 0.963 | 0.0359 | 0.0512 | 0.00329 | 0.00115 | 1.09 | 0.98 | 0.952 | 0.945 | 0.718 | 0.031 | 0.0179 | 0.00825 | 0.00249 | 73 ± 1.1 | 89.4 ± 2.2 | 81.5 ± 2.2 | 71.4 ± 2.8 | 31.5 ± 3.9 | 14.6 ± 0.54 | 94.6 ± 1.6 | 103.4 ± 0.37 | 106 ± 1.6 | 85.8 ± 4.9 | 53.12 ± 0.43 | 15.2 ± 1.2 |
| NC(=O)Nc1cc(-c2cccc(F)c2)sc1C(=O)N[C@H]1CCCNC1 [AZD7762] | 0.976 | 0.981 | 1.07 | 1.08 | 0.341 | 0.00441 | 0.00215 | 0.000402 | 0.00128 | 0.981 | 0.92 | 0.935 | 0.731 | 0.244 | 0.0116 | 0.00396 | 0.000482 | 0.00108 | 99 ± 1.1 | 98.96 ± 0.94 | 98.3 ± 0.4 | 83.6 ± 0.97 | 22.27 ± 0.029 | 3.24 ± 0.41 | 102 ± 4.3 | 108 ± 1.8 | 88.76 ± 0.17 | 32.13 ± 0.32 | 17.1 ± 0.87 | 6.55 ± 0.31 |
| O=C(/C=C/c1cccc(S(=O)(=O)Nc2ccccc2)c1)NO [Belinostat(PXD101)] | 1.11 | 0.925 | 1.01 | 0.986 | 0.987 | 0.854 | 0.277 | 0.00312 | 0.001 | 1.07 | 1.04 | 1.01 | 1.03 | 1.18 | 0.923 | 0.646 | 0.271 | 0.0621 | 97.7 ± 1.1 | 97 ± 2.6 | 97.46 ± 0.88 | 92.7 ± 1.6 | 77.17 ± 0.11 | 9.88 ± 0.36 | 109 ± 3.7 | 111.1 ± 1.1 | 107 ± 1.1 | 94.4 ± 1.9 | 85.6 ± 1.9 | 44.6 ± 0.66 |
| CC(C)C[C@H](NC(=O)[C@H](Cc1ccccc1)NC(=O)c1cnccn1)B(O)O [Bortezomib] | 1.02 | 0.99 | 1.02 | 0.62 | 0.0154 | 0.00739 | 0.0026 | 0.000806 | 0.000906 | 1.07 | 1.03 | 0.903 | 0.16 | 0.0107 | 0.00306 | 0.00178 | 0.000877 | 0.000659 | 97.4 ± 1.6 | 90 ± 4.2 | 2.332 ± 0.012 | 1.43 ± 0.049 | 1.14 ± 0.0052 | 1.03 ± 0.066 | 110 ± 1.3 | 102 ± 2.8 | 5.8 ± 0.15 | 3.06 ± 0.034 | 2.21 ± 0.16 | 1.87 ± 0.13 |
| CC(C)C[C@@H](C(=O)N[C@H](C(=O)OC1CCCC1)c1ccccc1)[C@H](O)C(=O)NO [CHR-2797] | 1.06 | 0.998 | 0.978 | 1.02 | 0.982 | 0.804 | 0.875 | 0.595 | 0.0151 | 0.86 | 0.866 | 0.628 | 0.884 | 0.614 | 0.512 | 0.414 | 0.345 | 0.144 | 103 ± 2.1 | 105.3 ± 0.65 | 115 ± 1.4 | 111 ± 7.5 | 104.4 ± 0.14 | 89.6 ± 2.7 | 112 ± 1.6 | 116 ± 2.4 | 114.53 ± 0.03 | 102 ± 1.6 | 89.8 ± 1.5 | 82 ± 2.1 |
| Nc1nc(Cl)nc2c1ncn2[C@@H]1O[C@H](CO)[C@@H](O)[C@@H]1F [Clofarabine] | 1.06 | 0.989 | 1.02 | 1.05 | 1.05 | 0.404 | 0.00754 | 0.00286 | 0.00163 | 1.11 | 0.982 | 1.02 | 0.905 | 0.929 | 0.0836 | 0.0188 | 0.0106 | 0.00741 | 107 ± 2.7 | 101.98 ± 0.033 | 102.7 ± 0.28 | 91.6 ± 3.6 | 47.38 ± 0.098 | 46.8 ± 2.5 | 114 ± 4.2 | 104.4 ± 0.4 | 103 ± 2.5 | 96.69 ± 0.62 | 49.3 ± 1.3 | 51.8 ± 2.4 |
| CNC(=O)c1cc(Oc2ccc(NC(=O)Nc3cc(C(C)(C)C)nn3-c3ccc4ncccc4c3)c(F)c2)ccn1 [DCC-2036] | 1.18 | 1.26 | 1.25 | 1.24 | 1.32 | 0.354 | 1.05 | 0.00706 | 0.00896 | 1.65 | 1.68 | 1.69 | 1.63 | 1.59 | 1.62 | 1.43 | 0.931 | 0.0177 | 96.92 ± 0.83 | 98.2 ± 4.1 | 90.7 ± 1.8 | 69.51 ± 0.61 | 59.4 ± 0.26 | 9.01 ± 0.21 | 100 ± 5.8 | 97.14 ± 0.62 | 92.2 ± 4.6 | 87 ± 1.4 | 87.2 ± 2 | 9.801 ± 0.031 |
